Laboratory results published in ChEMBL document CHEMBL1201862, “PubChem BioAssay data set” (2004).
Activity calls are given as the source filed them.

Key:
[1] = molecular target: Caspase-7 (Homo sapiens, UniProt P55210); test: potency of procaspase-7 enzyme activation – biochemical, absorbance, human, dual procaspase-3/-7 activator project, dose response (AID 504330)
[2] = molecular target: T1, Caspase-3 (Homo sapiens, UniProt P42574); test: activators of human procaspase-3 D3A mutant – biochemical, absorbance, PC-3 D3A mutant, counter-screen for dual procaspase-3/7 activator project, dose response (AID 504328)
T1 sequence (P42574 whole entry): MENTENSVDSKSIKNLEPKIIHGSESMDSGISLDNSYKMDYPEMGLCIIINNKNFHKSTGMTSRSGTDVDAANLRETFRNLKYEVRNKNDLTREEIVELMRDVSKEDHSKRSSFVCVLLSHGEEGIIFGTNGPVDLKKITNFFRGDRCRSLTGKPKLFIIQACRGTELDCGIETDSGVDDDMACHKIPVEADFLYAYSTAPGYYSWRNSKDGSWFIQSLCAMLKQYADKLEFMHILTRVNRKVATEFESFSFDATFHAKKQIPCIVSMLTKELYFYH

[3] = molecular target: Tumor necrosis factor (Homo sapiens, UniProt P01375); test: analog potency on TNFa NF-kB signaling – cell-based, revised, SAR follow-up (AID 2337); type: functional
[4] = tested on: HEK293; test: cells; type: functional, cell-based; settings: Homo sapiens
[5] = tested on: HEK293; test: NOD2 signaling inhibitors in MDP-stimulated cells, cell-based, uHTS, luminescence (AID 2001); type: functional; settings: Homo sapiens
[6] = molecular target: T2, Nucleotide-binding oligomerization domain-containing protein 1 (Homo sapiens, UniProt Q9Y239); test: blockers of NOD1 pathway activity – revised, SAR follow-up (AID 2333); type: functional
T2 sequence (Q9Y239 whole entry): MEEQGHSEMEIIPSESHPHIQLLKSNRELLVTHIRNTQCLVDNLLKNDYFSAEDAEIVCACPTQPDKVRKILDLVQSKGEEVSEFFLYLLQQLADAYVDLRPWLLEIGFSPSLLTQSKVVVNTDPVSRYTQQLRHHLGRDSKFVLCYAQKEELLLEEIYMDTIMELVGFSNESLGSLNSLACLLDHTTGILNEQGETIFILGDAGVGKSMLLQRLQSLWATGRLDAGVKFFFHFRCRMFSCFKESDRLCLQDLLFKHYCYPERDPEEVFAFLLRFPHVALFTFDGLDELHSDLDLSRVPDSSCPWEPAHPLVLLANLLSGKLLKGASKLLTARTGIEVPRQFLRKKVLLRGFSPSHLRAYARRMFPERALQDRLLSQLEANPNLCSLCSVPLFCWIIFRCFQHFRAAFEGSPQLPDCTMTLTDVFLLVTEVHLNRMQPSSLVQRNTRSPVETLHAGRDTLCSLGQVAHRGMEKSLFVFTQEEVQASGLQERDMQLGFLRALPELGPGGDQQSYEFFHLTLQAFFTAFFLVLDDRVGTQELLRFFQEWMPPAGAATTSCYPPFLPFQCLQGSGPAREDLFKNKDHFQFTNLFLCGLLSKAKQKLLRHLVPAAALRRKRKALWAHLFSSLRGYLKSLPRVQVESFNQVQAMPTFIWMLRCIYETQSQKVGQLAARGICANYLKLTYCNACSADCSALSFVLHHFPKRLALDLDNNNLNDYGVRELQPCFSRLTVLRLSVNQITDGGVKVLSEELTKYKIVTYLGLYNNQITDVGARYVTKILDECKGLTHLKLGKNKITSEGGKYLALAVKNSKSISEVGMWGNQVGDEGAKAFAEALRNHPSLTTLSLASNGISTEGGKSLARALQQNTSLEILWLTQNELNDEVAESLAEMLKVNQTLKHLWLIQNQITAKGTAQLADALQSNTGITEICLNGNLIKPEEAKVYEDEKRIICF

[7] = molecular target: T3, Ubiquitin-conjugating enzyme E2 N (Homo sapiens, UniProt P61088); type: functional;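 further: Dose-response confirmation in a TR-FRET assay detecting UBC13-driven polyubiquitin chain formation, inhibition measured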
T3 sequence (P61088 whole entry): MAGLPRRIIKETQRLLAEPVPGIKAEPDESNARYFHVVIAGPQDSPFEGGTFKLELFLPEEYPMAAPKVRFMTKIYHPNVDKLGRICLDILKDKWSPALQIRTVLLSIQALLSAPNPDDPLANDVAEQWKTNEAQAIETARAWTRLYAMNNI

[8] = molecular target: Nucleotide-binding oligomerization domain-containing protein 2 (Homo sapiens, UniProt Q9HC29); test: PubChem AID 2334; type: functional
[9] = tested on: HEK293; test: inhibition of NOD1-driven NF-kB reporter – cell-based, luminescence, uHTS, primary screen (AID 1578); type: functional; settings: Homo sapiens
[10] = tested on: HEK293; test: cells; type: functional, cell-based; settings: Homo sapiens; remark: listed apart in the source
[11] = tested on: HEK293; test: cells; settings: Homo sapiens
[12] = molecular target: Potassium voltage-gated channel subfamily KQT member 2 (Rattus norvegicus, UniProt O88943); test: potentiation of rat KCNQ2 current – cell-based, retigabine-insensitive compounds, dose response (AID 2654); type: functional
[13] = molecular target: UDP-galactopyranose mutase (Mycobacterium tuberculosis, UniProt P9WIQ1); test: Inhibitors of Mycobacterium tuberculosis UDP-galactopyranose mutase (UGM) enzyme Measured in Biochemical System Using Plate Reader - 2105-02_Inhibitor_Dose_CherryPick_Activity. [Related pubchem assays (depositor defined):AID504439]
[14] = molecular target: Peroxisome proliferator-activated receptor gamma/Nuclear receptor coactivator 1 (Homo sapiens, UniProt P37231); test: (§1) TR-FRET dose response biochemical High Throughput Screening assay for agonists of the steroid receptor coactivator 1 (SRC-1) recruitment by the peroxisome proliferator-activated receptor gamma (PPAR gamma): non-selective agonists. [Related pubchem assays (depositor defined):AID1300, AID1808, AID504735, AID631]; type: protein assay
[15] = molecular target: T4, Zinc finger protein mex-5 (Caenorhabditis elegans, UniProt Q9XUB2); test: potency of MEX-5 RNA-binding blockers – biochemical, C. elegans, fluorescence polarization, dose response (AID 1960)
T4 sequence (Q9XUB2 whole entry): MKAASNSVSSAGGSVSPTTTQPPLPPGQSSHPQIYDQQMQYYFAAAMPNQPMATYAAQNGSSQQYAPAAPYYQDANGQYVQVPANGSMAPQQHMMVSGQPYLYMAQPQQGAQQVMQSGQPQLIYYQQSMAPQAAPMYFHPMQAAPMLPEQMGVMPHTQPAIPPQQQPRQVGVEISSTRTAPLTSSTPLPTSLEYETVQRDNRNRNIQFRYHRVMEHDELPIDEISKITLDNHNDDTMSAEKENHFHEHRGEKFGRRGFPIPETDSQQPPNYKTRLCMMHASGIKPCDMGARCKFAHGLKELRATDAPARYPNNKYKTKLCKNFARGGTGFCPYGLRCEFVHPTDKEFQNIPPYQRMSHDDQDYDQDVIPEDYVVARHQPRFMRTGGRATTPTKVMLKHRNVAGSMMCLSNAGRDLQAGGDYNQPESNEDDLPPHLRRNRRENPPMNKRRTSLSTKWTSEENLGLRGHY

[16] = molecular target: Keap1/Nrf2 (Homo sapiens, UniProt Q14145); test: disruptors of Keap1 binding to Nrf2 peptide – biochemical, fluorescence polarization, cherry-picked samples, dose response (AID 588683)
[17] = molecular target: ORF 73 (Human herpesvirus 8, UniProt O40947); test: KSHV LANA DNA-binding disruption – biochemical, fluorescence polarization, cherry-picked samples, dose response (AID 504725); design: species or system Human gammaherpesvirus 8;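 further: fluorescence polarization of a labeled DNA duplex reporting LANA DNA binding; potency is for inhibitors that block LANA binding to the DNA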
[18] = NIH-3T3 fibroblast cytotoxicity, dose response, cytotoxicity control, cell-based, fluorescence, Alamar Blue, secondary assay (AID 2327); type: functional;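 further: NIH-3T3 mouse fibroblasts cultured with fluconazole at 8 µg/mL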
[19] = fluconazole-exposed Candida albicans growth modulators – fluorescence, retest, confirmation (AID 2467); type: functional, cell-based
[20] = molecular target: Peroxisome proliferator-activated receptor gamma/Nuclear receptor coactivator 3 (Homo sapiens, UniProt P37231); test: as §1, with “3 (SRC-3)” for “1 (SRC-1)”, “assays: 1301 (Confirmation screen.), 1048 (Primary screen.)]” for “assays (depositor defined):AID1300, AID1808, AID504735, AID631]”; type: functional
[21] = molecular target: T5, RNA-binding protein pos-1 (Caenorhabditis elegans, UniProt G5EF15); test: disruptors of C. elegans POS-1 RNA interaction – biochemical, fluorescence polarization, dose response (AID 1964);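 further: purified POS-1 fused to maltose binding protein made in E. coli; potency of compounds blocking POS-1 binding to fluorescent RNA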
T5 sequence (G5EF15 whole entry): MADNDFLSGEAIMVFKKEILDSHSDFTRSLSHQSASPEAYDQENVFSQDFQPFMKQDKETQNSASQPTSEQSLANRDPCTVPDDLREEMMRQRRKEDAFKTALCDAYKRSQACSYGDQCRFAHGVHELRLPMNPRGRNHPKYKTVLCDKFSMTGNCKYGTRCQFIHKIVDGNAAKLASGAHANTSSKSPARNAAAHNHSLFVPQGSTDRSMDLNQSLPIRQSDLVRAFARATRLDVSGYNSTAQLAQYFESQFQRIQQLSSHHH

[22] = molecular target: Peroxisome proliferator-activated receptor gamma/Nuclear receptor coactivator 2 (Homo sapiens, UniProt P37231); test: TR-FRET dose response biochemical High Throughput Screening assay for agonists of the steroid receptor coactivator 2 (SRC-2) recruitment by the peroxisome proliferator-activated receptor gamma (PPAR gamma): non-selective agonists. [Related pubchem assays: 1297, 1032 ]; type: functional
Sequence of Peroxisome proliferator-activated receptor gamma/Nuclear receptor coactivator 2 (P37231 whole entry): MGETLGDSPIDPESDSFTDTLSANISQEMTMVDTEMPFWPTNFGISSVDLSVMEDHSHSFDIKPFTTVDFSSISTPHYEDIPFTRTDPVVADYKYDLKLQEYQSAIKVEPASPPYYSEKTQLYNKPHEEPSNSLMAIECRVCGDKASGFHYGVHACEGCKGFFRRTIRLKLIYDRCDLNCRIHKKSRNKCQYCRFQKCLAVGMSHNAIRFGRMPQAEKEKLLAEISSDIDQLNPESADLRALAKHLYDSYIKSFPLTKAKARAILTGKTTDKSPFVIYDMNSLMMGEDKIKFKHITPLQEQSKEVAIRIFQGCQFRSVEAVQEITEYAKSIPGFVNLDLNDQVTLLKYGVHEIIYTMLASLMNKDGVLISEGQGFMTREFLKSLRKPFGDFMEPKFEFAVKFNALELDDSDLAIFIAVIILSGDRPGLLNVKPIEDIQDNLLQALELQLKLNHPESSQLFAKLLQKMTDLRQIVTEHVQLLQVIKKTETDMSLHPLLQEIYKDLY
Sequence of Peroxisome proliferator-activated receptor gamma/Nuclear receptor coactivator 2 (Q15596 whole entry, further chain): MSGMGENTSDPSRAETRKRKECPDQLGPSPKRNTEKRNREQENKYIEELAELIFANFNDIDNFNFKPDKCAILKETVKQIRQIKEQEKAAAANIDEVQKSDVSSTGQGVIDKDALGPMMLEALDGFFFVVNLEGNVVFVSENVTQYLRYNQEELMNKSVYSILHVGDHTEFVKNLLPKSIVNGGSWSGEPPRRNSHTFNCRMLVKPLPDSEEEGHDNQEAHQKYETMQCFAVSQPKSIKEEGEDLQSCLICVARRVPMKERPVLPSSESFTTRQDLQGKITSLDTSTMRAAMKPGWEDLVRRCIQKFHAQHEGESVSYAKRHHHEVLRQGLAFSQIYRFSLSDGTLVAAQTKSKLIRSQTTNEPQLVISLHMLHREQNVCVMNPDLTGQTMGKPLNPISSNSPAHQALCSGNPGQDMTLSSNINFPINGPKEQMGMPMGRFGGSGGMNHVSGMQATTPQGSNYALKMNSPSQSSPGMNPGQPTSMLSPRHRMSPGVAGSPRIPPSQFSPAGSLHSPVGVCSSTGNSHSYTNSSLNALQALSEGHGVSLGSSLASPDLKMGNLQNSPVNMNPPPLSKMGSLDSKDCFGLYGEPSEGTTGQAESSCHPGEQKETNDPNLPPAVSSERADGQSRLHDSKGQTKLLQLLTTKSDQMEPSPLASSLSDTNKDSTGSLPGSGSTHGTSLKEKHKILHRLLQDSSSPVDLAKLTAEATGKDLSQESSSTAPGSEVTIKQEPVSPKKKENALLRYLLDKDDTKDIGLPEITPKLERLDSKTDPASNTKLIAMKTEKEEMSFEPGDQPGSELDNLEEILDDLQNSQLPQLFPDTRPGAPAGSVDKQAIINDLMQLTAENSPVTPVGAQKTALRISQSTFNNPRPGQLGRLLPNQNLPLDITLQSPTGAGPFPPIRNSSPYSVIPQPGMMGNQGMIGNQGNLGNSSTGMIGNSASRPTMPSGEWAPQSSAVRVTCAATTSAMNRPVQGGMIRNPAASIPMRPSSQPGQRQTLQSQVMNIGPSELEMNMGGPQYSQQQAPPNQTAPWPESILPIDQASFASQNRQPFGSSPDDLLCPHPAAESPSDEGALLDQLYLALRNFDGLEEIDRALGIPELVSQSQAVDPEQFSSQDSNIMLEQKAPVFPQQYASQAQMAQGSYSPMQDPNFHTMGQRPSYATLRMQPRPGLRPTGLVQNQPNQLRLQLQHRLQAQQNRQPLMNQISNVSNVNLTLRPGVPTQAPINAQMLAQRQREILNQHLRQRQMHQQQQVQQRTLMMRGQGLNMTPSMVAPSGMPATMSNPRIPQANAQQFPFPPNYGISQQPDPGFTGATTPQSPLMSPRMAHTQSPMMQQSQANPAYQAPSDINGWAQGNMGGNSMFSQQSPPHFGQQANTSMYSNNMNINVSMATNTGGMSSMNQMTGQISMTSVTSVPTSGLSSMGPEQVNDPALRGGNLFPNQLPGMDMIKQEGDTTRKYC

Sequence of Peroxisome proliferator-activated receptor gamma/Nuclear receptor coactivator 1 (P37231 whole entry): as the sequence (P37231 whole entry) above
Sequence of Peroxisome proliferator-activated receptor gamma/Nuclear receptor coactivator 1 (Q15788 whole entry, further chain): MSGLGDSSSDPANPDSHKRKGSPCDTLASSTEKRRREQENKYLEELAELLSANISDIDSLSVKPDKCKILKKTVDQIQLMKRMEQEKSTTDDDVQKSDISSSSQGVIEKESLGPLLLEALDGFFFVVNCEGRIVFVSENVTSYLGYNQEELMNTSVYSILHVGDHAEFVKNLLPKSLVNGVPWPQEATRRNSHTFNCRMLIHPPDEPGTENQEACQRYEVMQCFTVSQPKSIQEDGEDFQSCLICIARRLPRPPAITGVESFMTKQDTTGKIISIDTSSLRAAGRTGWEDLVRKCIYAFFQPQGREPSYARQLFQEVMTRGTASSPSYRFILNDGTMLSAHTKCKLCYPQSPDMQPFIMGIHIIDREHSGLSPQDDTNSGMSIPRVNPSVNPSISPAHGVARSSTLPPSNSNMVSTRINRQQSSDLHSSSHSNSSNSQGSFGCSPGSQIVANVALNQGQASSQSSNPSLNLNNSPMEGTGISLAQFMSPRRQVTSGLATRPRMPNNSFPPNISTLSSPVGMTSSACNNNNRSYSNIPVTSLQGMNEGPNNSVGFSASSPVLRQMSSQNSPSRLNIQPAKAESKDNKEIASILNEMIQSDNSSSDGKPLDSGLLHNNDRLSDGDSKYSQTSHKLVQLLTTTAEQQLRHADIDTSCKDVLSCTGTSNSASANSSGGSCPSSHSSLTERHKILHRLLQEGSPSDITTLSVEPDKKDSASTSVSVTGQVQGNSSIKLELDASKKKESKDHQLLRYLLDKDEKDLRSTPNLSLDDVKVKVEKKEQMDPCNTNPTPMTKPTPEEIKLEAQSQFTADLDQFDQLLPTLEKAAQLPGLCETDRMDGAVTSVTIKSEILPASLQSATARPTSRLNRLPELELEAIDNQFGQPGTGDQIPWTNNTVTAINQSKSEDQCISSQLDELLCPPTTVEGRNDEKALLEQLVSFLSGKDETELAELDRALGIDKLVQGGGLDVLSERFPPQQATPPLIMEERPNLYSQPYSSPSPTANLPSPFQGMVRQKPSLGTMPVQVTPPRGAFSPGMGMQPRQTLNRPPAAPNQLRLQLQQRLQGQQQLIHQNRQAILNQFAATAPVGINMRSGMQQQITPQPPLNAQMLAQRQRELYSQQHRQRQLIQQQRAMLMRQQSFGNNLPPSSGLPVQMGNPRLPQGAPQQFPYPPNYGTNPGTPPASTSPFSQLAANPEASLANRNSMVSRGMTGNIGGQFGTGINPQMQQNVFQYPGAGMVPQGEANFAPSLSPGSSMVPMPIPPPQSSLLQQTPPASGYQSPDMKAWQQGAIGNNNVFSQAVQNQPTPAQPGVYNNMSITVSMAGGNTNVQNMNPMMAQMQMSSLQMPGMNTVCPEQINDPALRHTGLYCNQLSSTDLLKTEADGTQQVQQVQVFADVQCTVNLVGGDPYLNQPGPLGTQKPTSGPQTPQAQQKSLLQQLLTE
Sequence of ORF 73 (O40947 whole entry): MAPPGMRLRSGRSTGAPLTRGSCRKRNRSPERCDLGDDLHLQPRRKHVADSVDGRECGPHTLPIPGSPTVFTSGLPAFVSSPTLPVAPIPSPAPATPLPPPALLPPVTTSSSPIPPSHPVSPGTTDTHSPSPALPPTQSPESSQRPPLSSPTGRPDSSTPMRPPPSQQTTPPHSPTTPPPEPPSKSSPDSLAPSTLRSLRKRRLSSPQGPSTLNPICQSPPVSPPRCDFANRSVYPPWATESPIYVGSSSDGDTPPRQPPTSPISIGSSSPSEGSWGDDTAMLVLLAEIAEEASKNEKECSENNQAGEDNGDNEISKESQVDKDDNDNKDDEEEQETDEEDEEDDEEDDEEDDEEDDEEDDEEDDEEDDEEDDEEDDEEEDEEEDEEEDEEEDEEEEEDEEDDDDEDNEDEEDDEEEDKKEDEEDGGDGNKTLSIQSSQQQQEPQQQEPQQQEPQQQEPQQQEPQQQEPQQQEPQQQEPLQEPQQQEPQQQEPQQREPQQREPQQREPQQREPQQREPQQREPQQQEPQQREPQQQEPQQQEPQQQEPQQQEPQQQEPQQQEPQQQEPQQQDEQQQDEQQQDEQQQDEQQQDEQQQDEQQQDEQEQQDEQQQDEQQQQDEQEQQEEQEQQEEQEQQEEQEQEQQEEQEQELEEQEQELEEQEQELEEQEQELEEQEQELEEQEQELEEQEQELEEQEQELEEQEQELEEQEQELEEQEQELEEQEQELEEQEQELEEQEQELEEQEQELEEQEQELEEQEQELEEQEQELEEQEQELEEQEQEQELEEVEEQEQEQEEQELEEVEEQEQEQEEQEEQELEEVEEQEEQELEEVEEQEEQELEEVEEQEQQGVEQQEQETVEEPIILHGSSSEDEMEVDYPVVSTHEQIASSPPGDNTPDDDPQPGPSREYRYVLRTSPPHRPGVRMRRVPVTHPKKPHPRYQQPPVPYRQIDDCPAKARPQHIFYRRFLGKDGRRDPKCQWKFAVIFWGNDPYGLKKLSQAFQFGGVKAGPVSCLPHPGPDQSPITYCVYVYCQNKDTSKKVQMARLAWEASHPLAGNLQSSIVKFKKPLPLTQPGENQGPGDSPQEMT

COc1cccc(NC(=O)c2ccnc(N3CCC(C(=O)NCc4cc(OC)ccc4OC)CC3)c2)c1
EC50 [1]: > 85.3 µM (inactive) | EC50 [2]: > 85.3 µM (inactive)

O=S(=O)(Nc1nc2ccccc2[nH]1)c1ccc(Cl)cc1
IC50 [3]: > 20 µM (inactive) | IC50 [4]: > 20 µM (inactive) | IC50 [5]: > 20 µM (inactive) | IC50 [6]: 1.52 µM (active) | IC50 [7]: > 20 µM (inactive) | IC50 [8]: > 20 µM (inactive) | EC50 [9]: 2.29 µM (active) | IC50 [10]: > 20 µM (inactive) | IC50 [11]: > 20 µM (inactive)

O=C(NCc1ccc(Cl)cc1Cl)Nc1cncc(F)c1
EC50 [12]: 8.64 µM (active)

COc1ccc(C2C(C(=O)c3cccs3)=C(O)C(=O)N2c2nncs2)cc1 (configuration not stated)
AC50 [13]: 51.7 µM (active) | EC50 [14]: > 79.4 µM (inactive) | EC50 [15]: 0.1 µM (inconclusive) | AC50 [16]: 20.3 µM (active) | AC50 [17]: 7.29 µM (active) | EC50 [18]: > 150 µM (inconclusive) | EC50 [19]: > 38 µM (not active) | EC50 [20]: > 79.4 µM (not active) | EC50 [21]: 0.549 µM (inconclusive) | EC50 [22]: > 79.4 µM (not active)
